In patent publication US5753636A, “Injection solution for intramuscular and subcutaneous administration to animals” (priority 1993, dated 1998):
Read-outs that look alike come from different tables or passages of the source.

Columns and labels:
injection site [1] = conditions: cited from earlier work
injection site [2] = experiment: Local tolerability / irritation at the injection site, general statements; conditions: applicant's statement
injection site [3] = conditions: in vivo
[4] = statement on known products, solvents or bases

Compound: polyethylene glycol
- local tolerability / irritation (injection site [1]; in vivo): highly irritant and have haemolytic effects

Compound: NCCC[C@H](N)C(=O)O [L-ornithine]
- local tolerability / irritation (injection site [2]): excellent local tolerability

Compound: CC(O)CO (centres unmarked) [1,2-propanediol]
- local tolerability / irritation (injection site [1]; [4]): highly irritant and have haemolytic effects

Compound: NCCCC[C@H](N)C(=O)O [L-lysine]
- local tolerability / irritation (injection site [2]): excellent local tolerability

Compound: [O]=[Mg] [MgO, Magnesium oxide]
- local tolerability / irritation (injection site [3]): irritant for tissue

Compound: OCCNCCO [diethanolamine]
- local tolerability / irritation (injection site [1]; in vivo): very irritant

Compound: NCCO [monoethanolamine]
- local tolerability / irritation (injection site [1]; [4]): very irritant

Compound: N=C(N)NCCC[C@H](N)C(=O)O [L-arginine]
- local tolerability / irritation (injection site [2]): excellent local tolerability
